# Laboratory results from patent US11945822B2, “Pyrazolo-triazine and/or pyrazolo-pxrimidine derivatives as selective inhibitor of cyclin dependent kinase” (QURIENT CO., LTD., priority 2018, dated 2024).
# Molecular target: T1, CDK1/Cyclin B (Homo sapiens, UniProt P06493)
# T1 construct: purchased Invitrogen PR4768C
# Assay: Enzymatic assay for CDK1 (FRET based LANCE Ultra kinase assay)
# Type: biochemical
# Settings: read-out: CDK1 enzymatic activity (IC50 activity range)
# Summary of the method: (§1)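 Each CDK complex ([…]) phosphorylated 68 nM ULight-MBP peptide with ATP at Km for 60 min at 23° C., against 8 compound doses (4-fold dilutions). EDTA/Eu-anti-phospho-MBP detection, 60 min, then TR-FRET emission at 615 and 665 nm.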
# T1 sequence (P06493 whole entry): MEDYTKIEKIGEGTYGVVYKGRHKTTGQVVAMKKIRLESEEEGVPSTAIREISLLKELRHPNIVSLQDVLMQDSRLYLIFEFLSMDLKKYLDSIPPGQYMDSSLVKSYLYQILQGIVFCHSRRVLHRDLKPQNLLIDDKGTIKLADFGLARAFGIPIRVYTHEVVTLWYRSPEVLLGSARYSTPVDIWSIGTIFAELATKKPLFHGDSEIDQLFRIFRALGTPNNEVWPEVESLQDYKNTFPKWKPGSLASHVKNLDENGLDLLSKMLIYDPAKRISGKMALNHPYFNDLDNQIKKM
# T1 sequence (P14635 whole entry partner): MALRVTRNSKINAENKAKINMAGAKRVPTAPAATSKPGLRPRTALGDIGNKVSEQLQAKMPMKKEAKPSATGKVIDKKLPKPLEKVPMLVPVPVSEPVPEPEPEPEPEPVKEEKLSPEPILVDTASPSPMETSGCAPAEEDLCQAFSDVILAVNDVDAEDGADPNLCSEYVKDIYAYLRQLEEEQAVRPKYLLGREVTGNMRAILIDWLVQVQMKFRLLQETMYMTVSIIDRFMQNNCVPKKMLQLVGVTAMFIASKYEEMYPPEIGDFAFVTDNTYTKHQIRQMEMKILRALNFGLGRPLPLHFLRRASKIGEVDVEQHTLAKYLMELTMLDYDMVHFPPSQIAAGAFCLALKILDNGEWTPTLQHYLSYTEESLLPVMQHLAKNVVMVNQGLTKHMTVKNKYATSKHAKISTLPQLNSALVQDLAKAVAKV
row,IC50 [µM],Compound
1,> 1,CC(C)c1cnn2c(NCc3ccccc3-c3nccc4cc(NC(=O)CCCN(C)C)ccc34)nc(NC[C@H]3CCNC[C@@H]3O)nc12 [Compound 278]
2,> 1,CC(C)c1cnn2c(NCc3ccccc3-c3ccc4ccccc4n3)nc(N[C@H]3CC[C@H](O)CC3)nc12 [Compound 266]
3,> 1,CC(C)c1cnn2c(NCc3ccccc3-c3nccc4ccccc34)nc(NC[C@H]3CCNC[C@@H]3O)nc12 [Compound 279]

# Molecular target: T2, CDK2/Cyclin A (Homo sapiens, UniProt P24941)
# T2 construct: purchased Invitrogen PV6290
# Assay: Enzymatic assay for CDK2 (FRET based LANCE Ultra kinase assay)
# Type: biochemical
# Settings: read-out: CDK2 enzymatic activity (IC50 activity range)
# Summary of the method: as §1
row,IC50 [µM],Compound
1,> 1,CC(C)c1cnn2c(NCc3ccccc3-c3nccc4cc(NC(=O)CCCN(C)C)ccc34)nc(NC[C@H]3CCNC[C@@H]3O)nc12 [Compound 278]
2,> 1,CC(C)c1cnn2c(NCc3ccccc3-c3ccc4ccccc4n3)nc(N[C@H]3CC[C@H](O)CC3)nc12 [Compound 266]
3,> 1,CC(C)c1cnn2c(NCc3ccccc3-c3nccc4ccccc34)nc(NC[C@H]3CCNC[C@@H]3O)nc12 [Compound 279]

# Molecular target: T3, CDK5/p25 (Homo sapiens, UniProt Q00535)
# T3 construct: purchased Invitrogen PR8543B
# Assay: Enzymatic assay for CDK5 (FRET based LANCE Ultra kinase assay)
# Type: biochemical
# Settings: read-out: CDK5 enzymatic activity (IC50 activity range)
# Summary of the method: as §1
# T3 sequence (Q00535 whole entry): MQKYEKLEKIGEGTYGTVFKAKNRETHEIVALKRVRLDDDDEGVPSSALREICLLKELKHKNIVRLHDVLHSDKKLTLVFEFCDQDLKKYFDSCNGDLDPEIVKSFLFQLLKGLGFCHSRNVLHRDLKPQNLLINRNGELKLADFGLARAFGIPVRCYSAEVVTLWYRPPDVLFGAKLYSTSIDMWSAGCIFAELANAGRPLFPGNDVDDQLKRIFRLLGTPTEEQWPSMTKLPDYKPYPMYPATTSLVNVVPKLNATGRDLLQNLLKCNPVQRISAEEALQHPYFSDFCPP
# T3 sequence (Q15078 99-307 partner limits assumed): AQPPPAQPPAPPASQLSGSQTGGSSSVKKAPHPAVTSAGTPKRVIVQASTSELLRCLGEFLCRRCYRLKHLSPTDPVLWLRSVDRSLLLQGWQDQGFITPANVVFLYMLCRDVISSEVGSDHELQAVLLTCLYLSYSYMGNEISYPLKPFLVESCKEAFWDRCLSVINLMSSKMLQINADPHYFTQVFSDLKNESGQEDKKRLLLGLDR
row,IC50 [µM],Compound
1,> 1,CC(C)c1cnn2c(NCc3ccccc3-c3nccc4cc(NC(=O)CCCN(C)C)ccc34)nc(NC[C@H]3CCNC[C@@H]3O)nc12 [Compound 278]
2,> 1,CC(C)c1cnn2c(NCc3ccccc3-c3ccc4ccccc4n3)nc(N[C@H]3CC[C@H](O)CC3)nc12 [Compound 266]
3,> 1,CC(C)c1cnn2c(NCc3ccccc3-c3nccc4ccccc34)nc(NC[C@H]3CCNC[C@@H]3O)nc12 [Compound 279]

# Molecular target: T4, CDK7/Cyclin H/MNAT1 (Homo sapiens, UniProt P50613)
# T4 construct: purchased Invitrogen PR6749B
# Assay: Enzymatic assay for CDK7 (FRET based LANCE Ultra kinase assay)
# Type: biochemical
# Settings: CDK1/CDK7
# Summary of the method: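 Inhibition was measured at Km ATP by time-resolved FRET between a Eu anti-phospho antibody and a phosphorylated ULight peptide. The enzyme was the purified CDK7/cyclin complex, and data were curve-fitted.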
# T4 sequence (P50613 whole entry): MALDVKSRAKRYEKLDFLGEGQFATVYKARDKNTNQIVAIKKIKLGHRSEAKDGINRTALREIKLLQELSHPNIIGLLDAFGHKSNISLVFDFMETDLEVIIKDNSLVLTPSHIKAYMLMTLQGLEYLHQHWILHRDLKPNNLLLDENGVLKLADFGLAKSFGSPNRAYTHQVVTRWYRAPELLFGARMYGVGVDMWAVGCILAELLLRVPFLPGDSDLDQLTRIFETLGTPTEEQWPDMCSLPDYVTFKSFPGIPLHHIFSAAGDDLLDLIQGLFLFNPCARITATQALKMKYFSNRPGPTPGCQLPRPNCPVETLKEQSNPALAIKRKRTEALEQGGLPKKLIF
# T4 sequence (P51946 whole entry partner): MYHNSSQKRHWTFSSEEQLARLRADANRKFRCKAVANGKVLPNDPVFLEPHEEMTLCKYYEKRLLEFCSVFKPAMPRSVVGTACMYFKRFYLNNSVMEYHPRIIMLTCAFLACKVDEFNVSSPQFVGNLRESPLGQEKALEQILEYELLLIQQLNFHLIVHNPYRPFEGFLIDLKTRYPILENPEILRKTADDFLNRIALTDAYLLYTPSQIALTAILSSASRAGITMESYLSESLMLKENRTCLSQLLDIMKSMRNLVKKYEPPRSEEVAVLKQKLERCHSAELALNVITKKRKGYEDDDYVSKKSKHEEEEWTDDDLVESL
# T4 sequence (P51948 whole entry partner): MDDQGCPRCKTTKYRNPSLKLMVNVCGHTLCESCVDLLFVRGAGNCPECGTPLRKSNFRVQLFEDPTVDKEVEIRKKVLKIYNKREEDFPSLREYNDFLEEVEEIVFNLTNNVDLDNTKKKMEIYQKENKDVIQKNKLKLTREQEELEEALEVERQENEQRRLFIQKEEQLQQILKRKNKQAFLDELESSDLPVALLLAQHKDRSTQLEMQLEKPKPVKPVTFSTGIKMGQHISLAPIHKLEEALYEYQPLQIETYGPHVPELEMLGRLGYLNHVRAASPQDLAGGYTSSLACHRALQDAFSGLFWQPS
row,CDK1/CDK7: Selectivity of CDK7 inhibition over CDK1 inhibition,Compound
1,A (A=greater than 200 fold),CC(C)c1cnn2c(NCc3ccccc3-c3nccc4cc(NC(=O)CCCN(C)C)ccc34)nc(NC[C@H]3CCNC[C@@H]3O)nc12 [Compound 278]
2,A (A=greater than 200 fold),CC(C)c1cnn2c(NCc3ccccc3-c3ccc4ccccc4n3)nc(N[C@H]3CC[C@H](O)CC3)nc12 [Compound 266]

row,Compound,CDK1/CDK7: Selectivity of CDK7 inhibition over CDK1 inhibition
1,CC(C)c1cnn2c(NCc3ccccc3-c3nccc4ccccc34)nc(NC[C@H]3CCNC[C@@H]3O)nc12 [Compound 279],"B (B=less than 200 fold, but greater than 20 fold)"

# Same assay, conditions: CDK2/CDK7
row,CDK2/CDK7: Selectivity of CDK7 inhibition over CDK2 inhibition,Compound
1,A (A=greater than 200 fold),CC(C)c1cnn2c(NCc3ccccc3-c3nccc4cc(NC(=O)CCCN(C)C)ccc34)nc(NC[C@H]3CCNC[C@@H]3O)nc12 [Compound 278]
2,A (A=greater than 200 fold),CC(C)c1cnn2c(NCc3ccccc3-c3ccc4ccccc4n3)nc(N[C@H]3CC[C@H](O)CC3)nc12 [Compound 266]

row,Compound,CDK2/CDK7: Selectivity of CDK7 inhibition over CDK2 inhibition
1,CC(C)c1cnn2c(NCc3ccccc3-c3nccc4ccccc34)nc(NC[C@H]3CCNC[C@@H]3O)nc12 [Compound 279],"B (B=less than 200 fold, but greater than 20 fold)"

# Same assay, conditions: CDK5/CDK7
row,CDK5/CDK7: Selectivity of CDK7 inhibition over CDK5 inhibition,Compound
1,A (A=greater than 200 fold),CC(C)c1cnn2c(NCc3ccccc3-c3nccc4cc(NC(=O)CCCN(C)C)ccc34)nc(NC[C@H]3CCNC[C@@H]3O)nc12 [Compound 278]
2,A (A=greater than 200 fold),CC(C)c1cnn2c(NCc3ccccc3-c3ccc4ccccc4n3)nc(N[C@H]3CC[C@H](O)CC3)nc12 [Compound 266]

row,Compound,CDK5/CDK7: Selectivity of CDK7 inhibition over CDK5 inhibition
1,CC(C)c1cnn2c(NCc3ccccc3-c3nccc4ccccc34)nc(NC[C@H]3CCNC[C@@H]3O)nc12 [Compound 279],"B (B=less than 200 fold, but greater than 20 fold)"

# Same assay, conditions: read-out: CDK7 enzymatic activity (IC50 activity range)
row,IC50 [µM],Compound
1,< 0.1,CC(C)c1cnn2c(NCc3ccccc3-c3nccc4cc(NC(=O)CCCN(C)C)ccc34)nc(NC[C@H]3CCNC[C@@H]3O)nc12 [Compound 278]
2,< 0.1,CC(C)c1cnn2c(NCc3ccccc3-c3ccc4ccccc4n3)nc(N[C@H]3CC[C@H](O)CC3)nc12 [Compound 266]
3,0.1 to 1,CC(C)c1cnn2c(NCc3ccccc3-c3nccc4ccccc34)nc(NC[C@H]3CCNC[C@@H]3O)nc12 [Compound 279]

# Tested on: H460
# Assay: Cellular H460 viability assay (CellTiter-Glo, 72 hours)
# Type: cell-based
# Settings: Homo sapiens, NCI-H460
# Summary of the method: (§2)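 Mycoplasma-tested cells, seeded at densities chosen for each line, received compound or DMSO vehicle (under 0.1% final) for 72 hours. Duplicate cultures were then read for viability by CellTiter-Glo luminescence.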
row,IC50 [µM],Compound
1,< 1,CC(C)c1cnn2c(NCc3ccccc3-c3ccc4ccccc4n3)nc(N[C@H]3CC[C@H](O)CC3)nc12 [Compound 266]

# Tested on: MV4-11
# Assay: Cellular MV4-11 viability assay (CellTiter-Glo, 72 hours)
# Type: cell-based
# Settings: Homo sapiens
# Summary of the method: as §2
row,IC50 [µM],Compound
1,1 to 10,CC(C)c1cnn2c(NCc3ccccc3-c3ccc4ccccc4n3)nc(N[C@H]3CC[C@H](O)CC3)nc12 [Compound 266]

# Tested on: A2780
# Assay: Cellular A2780 viability assay (CellTiter-Glo, 72 hours)
# Type: cell-based
# Settings: Homo sapiens
# Summary of the method: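 Compound exposure lasted 72 h at 37° C, 5% CO2, over 0.0015–10 uM, DMSO kept under 0.1%, with dosing 24 h after seeding. Seeding: A2780 1×10^3, OVCAR-3 5×10^3, MM.1S 1×10^4 cells/well in 10% FBS RPMI-1640. Duplicate CellTiter-Glo luminescence readout.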
row,IC50 [µM],Compound
1,1 to 10,CC(C)c1cnn2c(NCc3ccccc3-c3nccc4cc(NC(=O)CCCN(C)C)ccc34)nc(NC[C@H]3CCNC[C@@H]3O)nc12 [Compound 278]
2,≤ 1,CC(C)c1cnn2c(NCc3ccccc3-c3ccc4ccccc4n3)nc(N[C@H]3CC[C@H](O)CC3)nc12 [Compound 266]
3,≤ 1,CC(C)c1cnn2c(NCc3ccccc3-c3nccc4ccccc34)nc(NC[C@H]3CCNC[C@@H]3O)nc12 [Compound 279]

# Tested on: OVCAR-3
# Assay: Cellular OVCAR-3 viability assay (CellTiter-Glo, 72 hours)
# Type: cell-based
# Settings: Homo sapiens
# Description: Human T-cell acute lymphoblastic leukemia cell line, MOLT-4 (ATCC, Cat #CRL-1582), Human multiple myeloma cell line, RPMI-8226 (Invitrogen, Cat #22400-089) and MM.1S (ATCC, Cat #CRL-2974), NSCLC (Non-small cell lung cancer) cell line H460 (ATCC, Cat #HTB-177), Human colon colorectal carcinoma cell line HCT116 (ATCC, Cat #CCL-247), Human acute monocytic leukemia cell line MV4-11 (ATCC, Cat #CRL-9591), OVCAR-3 (ATCC, Cat #HTB-161) and A2780 (ECACC, Cat #93112519) were obtained from ATCC. Cells were grown in RPMI-1640 media (Invitrogen, Cat #22400-089) supplemented with 10% FBS (Invitrogen, Cat #10099141) and 1% penicillin/streptomycin (Invitrogen, Cat #15070063) and cultured at 37° C., 5% CO2 in a humidified chamber. All cell lines were routinely tested for mycoplasma.
# The effect of the CDK7 inhibitor to inhibit the growth of target cancer cells was evaluated through the 72 hours time period of viability assay. Briefly, the candidate cell line ware plated in 96 well plate at the following density of cells respectively. 1×10^4 cells/well for MOLT-4, RPMI-8226, MV4-11 and MM.1S, 5×10^3 for H460, HCT116 and OVCAR-3 and IX 10^3 for A2780. After 24 hours, the cells were treated with various concentrations of the compound (ranging from 0.0015 uM to 10 uM). DMSO solvent without compound served as a control and final DMSO concentration less than 0.1%. After 72 hours of incubation at 37° C., 5% CO2 incubator, cells were analyzed for the viability using the CellTiter-Glo Luminescent Cell Viability Assay (Promega, Cat #G7570). All viability assays were performed in duplicate and Luminescence was read using an Envision (Perkin Elmer, USA). Data was analyzed using XLfit software.
row,IC50 [µM],Compound
1,> 10,CC(C)c1cnn2c(NCc3ccccc3-c3nccc4cc(NC(=O)CCCN(C)C)ccc34)nc(NC[C@H]3CCNC[C@@H]3O)nc12 [Compound 278]
2,≤ 1,CC(C)c1cnn2c(NCc3ccccc3-c3ccc4ccccc4n3)nc(N[C@H]3CC[C@H](O)CC3)nc12 [Compound 266]
3,1 to 10,CC(C)c1cnn2c(NCc3ccccc3-c3nccc4ccccc34)nc(NC[C@H]3CCNC[C@@H]3O)nc12 [Compound 279]
